Activity calls are given as the source filed them. The rule behind the calls is not given here.
Tests used:
A498 [1] = assay: Growth inhibition of human A498 cells at 1 uM after 48 hrs by sulforhodamine B assay; type: functional, cell-based
PC-3 = assay: Growth inhibition of human PC3 cells after 48 hrs by sulforhodamine B assay; type: functional; settings: PC-3, 48 h
IGROV-1 [2] = assay: Growth inhibition of human IGROV1 cells after 48 hrs by sulforhodamine B assay; type: functional; settings: IGROV-1, 48 h
UO-31 [3] = assay: Growth inhibition of human UO31 cells at 1 uM after 48 hrs by sulforhodamine B assay; type: functional, cell-based
NCI-H322M = assay: Growth inhibition of human […] cells at 1 uM after 48 hrs by sulforhodamine B assay; type: functional, cell-based
HCT-116 = assay: Growth inhibition of human HCT116 cells at 1 uM after 48 hrs by sulforhodamine B assay; type: functional, cell-based
EKVX [4] = assay: Growth inhibition of human EKVX cells at 1 uM after 48 hrs by sulforhodamine B assay; type: functional, cell-based
K562 = assay: Growth inhibition of human K562 cells at 1 uM after 48 hrs by sulforhodamine B assay; type: functional, cell-based
HL-60 = assay: Growth inhibition of human HL-60(TB) cells at 1 uM after 48 hrs by sulforhodamine B assay; type: functional, cell-based
MDA-MB-468 = assay: Growth inhibition of human MDA-MB-468 cells at 1 uM after 48 hrs by sulforhodamine B assay; type: functional, cell-based
NCI-H460 = assay: Growth inhibition of human NCI-H460 cells after 48 hrs by sulforhodamine B assay; type: functional; settings: NCI-H460, 48 h
TK-10 = assay: Growth inhibition of human TK10 cells at 1 uM after 48 hrs by sulforhodamine B assay; type: functional, cell-based
SR = assay: Growth inhibition of human SR cells after 48 hrs by sulforhodamine B assay; type: functional
MDA-MB-435 = assay: Growth inhibition of human MDA-MB-435 cells after 48 hrs by sulforhodamine B assay; type: functional; settings: MDA-MB-435, 48 h
NCI/ADR-RES = assay: Growth inhibition of human NCI/ADR-RES cells after 48 hrs by sulforhodamine B assay; type: functional
Malme-3M [5] = assay: Growth inhibition of human MALME-3M cells at 1 uM after 48 hrs by sulforhodamine B assay; type: functional, cell-based
UO-31 [6] = assay: Growth inhibition of human UO31 cells after 48 hrs by sulforhodamine B assay; type: functional; settings: UO-31, 48 h
MOLT-4 = assay: Growth inhibition of human MOLT4 cells at 1 uM after 48 hrs by sulforhodamine B assay; type: functional, cell-based
T47D = assay: Growth inhibition of human T47D cells after 48 hrs by sulforhodamine B assay; type: functional
Malme-3M [7] = assay: Growth inhibition of human MALME-3M cells after 48 hrs by sulforhodamine B assay; type: functional
A498 [8] = assay: Growth inhibition of human A498 cells after 48 hrs by sulforhodamine B assay; type: functional; settings: A498, 48 h
SW-620 = assay: Growth inhibition of human SW620 cells after 48 hrs by sulforhodamine B assay; type: functional; settings: SW-620, 48 h
MCF7 = assay: Growth inhibition of human MCF7 cells after 48 hrs by sulforhodamine B assay; type: functional; settings: MCF7, 48 h
HOP-92 = assay: Growth inhibition of human HOP92 cells after 48 hrs by sulforhodamine B assay; type: functional; settings: HOP-92, 48 h
EKVX [9] = assay: Growth inhibition of human EKVX cells after 48 hrs by sulforhodamine B assay; type: functional
OVCAR-3 = assay: Growth inhibition of human OVCAR-3 cells at 1 uM after 48 hrs by sulforhodamine B assay; type: functional, cell-based
RXF 393 = assay: Growth inhibition of human RXF393 cells after 48 hrs by sulforhodamine B assay; type: functional; settings: RXF 393, 48 h
COLO 205 = assay: Growth inhibition of human COLO205 cells at 1 uM after 48 hrs by sulforhodamine B assay; type: functional, cell-based
NCI-H226 [10] = assay: Growth inhibition of human NCI-H226 cells at 1 uM after 48 hrs by sulforhodamine B assay; type: functional, cell-based
ACHN = assay: Growth inhibition of human ACHN cells after 48 hrs by sulforhodamine B assay; type: functional
HCC 2998 = assay: Growth inhibition of human HCC2998 cells at 1 uM after 48 hrs by sulforhodamine B assay; type: functional, cell-based
M14 = assay: Growth inhibition of human M14 cells at 1 uM after 48 hrs by sulforhodamine B assay; type: functional, cell-based
IGROV-1 [11] = assay: Growth inhibition of human IGROV1 cells at 1 uM after 48 hrs by sulforhodamine B assay; type: functional, cell-based
U-251 [12] = assay: Growth inhibition of human U251 cells at 1 uM after 48 hrs by sulforhodamine B assay; type: functional, cell-based
HT-29 = assay: Growth inhibition of human HT-29 cells after 48 hrs by sulforhodamine B assay; type: functional; settings: HT-29, 48 h
CAKI-1 [13] = assay: Growth inhibition of human Caki1 cells after 48 hrs by sulforhodamine B assay; type: functional; settings: CAKI-1, 48 h
NCI-H23 = assay: Growth inhibition of human NCI-H23 cells at 1 uM after 48 hrs by sulforhodamine B assay; type: functional, cell-based
MDA-MB-231 = assay: Growth inhibition of human MDA-MB-231 cells after 48 hrs by sulforhodamine B assay; type: functional; settings: MDA-MB-231, 48 h
HCT-15 = assay: Growth inhibition of human HCT15 cells after 48 hrs by sulforhodamine B assay; type: functional; settings: HCT-15, 48 h
SN12C [14] = assay: Growth inhibition of human SN12C cells after 48 hrs by sulforhodamine B assay; type: functional
BT-549 [15] = assay: Growth inhibition of human BT549 cells after 48 hrs by sulforhodamine B assay; type: functional; settings: BT-549, 48 h
SN12C [16] = assay: Growth inhibition of human SN12C cells at 1 uM after 48 hrs by sulforhodamine B assay; type: functional, cell-based
CAKI-1 [17] = assay: Growth inhibition of human Caki1 cells at 1 uM after 48 hrs by sulforhodamine B assay; type: functional, cell-based
BT-549 [18] = assay: Growth inhibition of human BT549 cells at 1 uM after 48 hrs by sulforhodamine B assay; type: functional, cell-based
NCI-H226 [19] = assay: Growth inhibition of human NCI-H226 cells after 48 hrs by sulforhodamine B assay; type: functional; settings: NCI-H226, 48 h
U-251 [20] = assay: Growth inhibition of human U251 cells after 48 hrs by sulforhodamine B assay; type: functional; settings: U-251, 48 h
[21] = read-out: LC50 (the source's name)

With `Nc1nc(N)c2c(n1)NC(c1ccccc1)C1CCc3ccccc3C1=N2` (stereo not given) the “growth inhibition (GI)” value (A498 [1]) was “inactive”, the GI50 (PC-3) was 2.82 µM and the LC50 (PC-3) was over 100 µM. The GI50 (IGROV-1 [2]) was 4.45 µM, the LC50 (concentration killing 50% of cells) (IGROV-1 [2]) was 62.3 µM and the “growth inhibition (GI)” value (UO-31 [3]) was “inactive”. The “growth inhibition (GI)” value (NCI-H322M) was “inactive”, the “growth inhibition (GI)” value (HCT-116) was “inactive” and the “growth inhibition (GI)” value (EKVX [4]) was “inactive”. For the same molecule, the “growth inhibition (GI)” value (K562) was “inactive”, the “growth inhibition (GI)” value (HL-60) was “inactive” and the “growth inhibition (GI)” value (MDA-MB-468) was “inactive”. For the same molecule, the GI50 (NCI-H460) was 3.81 µM, the LC50 (NCI-H460) was 44.2 µM and the “growth inhibition (GI)” value (TK-10) was “inactive”. It also gave a GI50 (SR) of 4.52 µM, an LC50 (SR) of over 100 µM and a GI50 (MDA-MB-435) of 2.93 µM. It also gave an LC50 (concentration killing 50% of cells) (MDA-MB-435) of 39.9 µM, a GI50 (NCI/ADR-RES) of 3.13 µM and an LC50 (concentration killing 50% of cells) (NCI/ADR-RES) of over 100 µM. The “growth inhibition (GI)” value (Malme-3M [5]) was “inactive”, the GI50 (UO-31 [6]) was 2.5 µM and the LC50 (UO-31 [6]) was 45 µM. The “growth inhibition (GI)” value (MOLT-4) was “inactive”, the GI50 (T47D) was 4.57 µM and the CC50 (T47D; [21]) was over 100 µM. The GI50 (Malme-3M [7]) was 2.13 µM, the LC50 (Malme-3M [7]) was 82.5 µM and the GI50 (A498 [8]) was 2.29 µM. It also gave an LC50 (A498 [8]) of 30.2 µM, a GI50 (SW-620) of 6.3 µM and an LC50 (SW-620) of 53.3 µM. For the same molecule, the GI50 (MCF7) was 3.25 µM, the LC50 (MCF7) was 46.7 µM and the GI50 (HOP-92) was 2.55 µM. For the same molecule, the LC50 (50% lethal concentration) (HOP-92) was 40.6 µM, the GI50 (EKVX [9]) was 2.68 µM and the LC50 (EKVX [9]) was 78.3 µM. For the same molecule, the “growth inhibition (GI)” value (OVCAR-3) was “inactive”, the GI50 (RXF 393) was 4.89 µM and the LC50 (50% lethal concentration) (RXF 393) was 66.7 µM. The “growth inhibition (GI)” value (COLO 205) was “inactive”, the “growth inhibition (GI)” value (NCI-H226 [10]) was “inactive” and the GI50 (ACHN) was 4.38 µM. The LC50 (50% lethal concentration) (ACHN) was 41.9 µM, the “growth inhibition (GI)” value (HCC 2998) was “inactive” and the “growth inhibition (GI)” value (M14) was “inactive”. For the same molecule, the “growth inhibition (GI)” value (IGROV-1 [11]) was “inactive”, the “growth inhibition (GI)” value (U-251 [12]) was “inactive” and the GI50 (HT-29) was 3.66 µM. The CC50 (HT-29; [21]) was 38 µM, the GI50 (CAKI-1 [13]) was 3.97 µM and the CC50 (CAKI-1 [13]; [21]) was 48.5 µM. The “growth inhibition (GI)” value (NCI-H23) was “inactive”, the GI50 (MDA-MB-231) was 6.02 µM and the CC50 (MDA-MB-231; [21]) was 51.9 µM. For the same molecule, the GI50 (HCT-15) was 4.06 µM, the LC50 (HCT-15) was 48.8 µM and the GI50 (SN12C [14]) was 7.33 µM. The CC50 (SN12C [14]; [21]) was 50.8 µM, the GI50 (BT-549 [15]) was 5.42 µM and the CC50 (BT-549 [15]; [21]) was 47.9 µM. The “growth inhibition (GI)” value (SN12C [16]) was “inactive”, the “growth inhibition (GI)” value (CAKI-1 [17]) was “inactive” and the “growth inhibition (GI)” value (BT-549 [18]) was “inactive”. For the same molecule, the GI50 (NCI-H226 [19]) was 5.96 µM, the LC50 (NCI-H226 [19]) was over 100 µM and the GI50 (U-251 [20]) was 4.65 µM. The LC50 (U-251 [20]) was 44 µM.
